US4885239A, “Rapid differentiation of bacteria using polyether antibiotics” (Eastman Kodak Company, priority 1986, dated 1989)

Tests used:
E. coli (gram -) = assay: inhibition of the reduction of RIND IX (Example 7), E. coli; assay type: cell-based, Escherichia coli (ATCC 25922); settings: about 1.7×10^-4 molar, calcium chloride, 635 nm, 30 minutes, 37° C.
Experimental: (§1) gram-negative bacteria Enterobacter cloacae (ATCC 23355), Escherichia coli (ATCC 25922), Proteus vulgaris (ATCC 13315), Klebsiella pneumoniae (ATCC 13883) and Pseudomonas aeruginosa (ATCC 27853), and gram-positive bacteria Staphylococcus aureus (ATCC 25923) and Streptococcus pyogenes (ATCC 19615), and brain heart infusion (BHI) broth from Difco Laboratories (Detroit, Mich.),
(§2) Bacterial suspensions were prepared by growing the cells in BHI to stationary phase overnight at 37° C. P. aeruginosa was grown with agitation. About 40 ml of overnight cultures were centrifuged, decanted and washed once with 0.05 molar potassium phosphate buffer or 0.05 molar N-2-hydroxyethylpiperazine-N'-2-ethanesulfonic acid (HEPES) buffer, pH 7.8, and resuspended in buffer.
(§3) Optical density readings (OD) were made at 635 nm at 0 minutes and after incubation at 37° C. for 30 minutes for all solutions, and the change (ΔOD) was determined. […] The corrected percent inhibition was calculated by dividing the difference between ΔOD obtained from a Control test without antibiotic and the ΔOD of the test, by the ΔOD of the Control without antibiotic. All readings were corrected by subtracting readings of the appropriate background control.
(§4) A dispersion of the RIND IX compound was prepared by dissolving the RIND compound in N,N-dimethylformamide (16 mg/ml of solvent acidified with 0.1% concentrated sulfuric acid). […]

S. aureus (gram +) = assay: inhibition of the reduction of RIND IX (Example 7), S. aureus; assay type: cell-based, Staphylococcus aureus (ATCC 25923); settings: Staphylococcus aureus, 0.5 h, about 1.7×10^-4 molar, calcium chloride, 635 nm, 30 minutes, 37° C., read-out: Corrected Percent Inhibition
Experimental: as §1, §2, §3, §4

[1] = tested on: viable gram-positive and gram-negative bacteria; assay: differentiation of viable gram-positive and gram-negative bacteria (outcome in words); assay type: cell-based; settings: RIND IX; Example 7
Experimental: as §1, §2
TERGITOL 7 anionic surfactant was used to differentiate viable bacteria according to the prior art method. Various concentrations of TERGITOL 7 surfactant were mixed with a 10% glucose solution (50 μl), 3-(4,5-dimethyl-2-thiazolyl)-2,5-diphenyl-2N-tetrazolium bromide (MTT) in methanol (25 μl at 5 mg/ml) or a RIND VII dispersion (1.5 ml) and phenazine methosulfate ETA (25 μl at 3 mg/ml methanol). The volume of each test solution was brought to 3 ml with potassium phosphate buffer. A cell suspension (100 μl at about 10^8 cells/ml) was then added. The solutions were incubated at 37° C. for 15 and 30 minutes in the presence of either E. coli, a gram (-) bacterium, or S. aureus, a gram (+) bacterium. The amount of dye formed was then determined visually and graded as follows: 0 indicates no dye formation, +/- indicates faint dye formation, 1+ indicates light dye formation, 2+ indicates moderate dye formation, 3+ indicates strong dye formation, and 4+ indicates very strong dye formation.
Calimycin, a polyether antibiotic, was similarly used with RIND VII in the differentiation of bacteria. Assays were performed as described above, except that 25 μl of 1 molar calcium chloride solution was added to each test solution and the P. aeruginosa response was measured in the presence of 10% yeast extract as the carbon source instead of glucose. The final concentration of calimycin in each test was 10^-3 molar.
The test solutions were prepared by adding the following, in order: 1.2 ml HEPES, 50 μl glucose solution, 1.5 ml RIND VII dispersion, 100 μl antibiotic solution, 100 μl cell suspension and 25 μl ETA solution. Cell control solutions contained all reagents except antibiotics. Background Controls consisted of both buffer and solution controls. The buffer control contained all reagents except antibiotics and cells. The solution control contained all reagents except cells.
Optical density readings (OD) were made at 635 nm at 0 minutes and after incubation at 37° C. for 30 minutes for all solutions, and the change (ΔOD) was determined. Table V below lists the results expressed as corrected percent inhibition of the reduction of RIND VII. The corrected percent inhibition was calculated by dividing the difference between ΔOD obtained from a Control test without antibiotic and the ΔOD of the test, by the ΔOD of the Control without antibiotic. All readings were corrected by subtracting readings of the appropriate background control.
Relative fluorescence was measured using a standard spectrophotometer modified to read at excitation of 540 nm and emission of 620 nm. The change (Δ) in relative fluorescence was determined after 30 minutes at 37° C. for several concentration levels of antibiotic.
Optical density measurements were obtained at 540 nm using a standard spectrophotometer and the change in optical density (ΔOD) was determined after 30 minutes at 37° C. The resulting data are shown in Table VII below for several concentrations of antibiotic. It is clear from the data that the composition of this example was useful for differentiating bacteria. […]

SMILES: C[C@H](CCC(=O)O)C[C@H](C)C[C@H](C)C(=O)/C=C(\O)[C@H](C)C[C@H](C)C/C=C/[C@@H](C)[C@@H](O)[C@@H](C)[C@@H](O)C[C@@H]1CC[C@@](C)([C@H]2CC[C@@](C)([C@@H](C)O)O2)O1 [ionomycin]
- Corrected Percent Inhibition (E. coli (gram -)): No Inhibition
- inhibition at 170 µM (S. aureus (gram +)): 59.7%
- differentiating gram-positive and gram-negative bacteria [1]: can be used to differentiate gram-positive and gram-negative bacteria
